Laboratory results published in patent US20240252668A1, “ANTIBODY DRUG CONJUGATES AND METHODS FOR MAKING THEREOF” (Novartis AG, priority 2021, published 2024).
Read-outs that look alike come from different tables or passages of the source. Starred links: 1 amine or outer side, 2 acyl side, 3 side chain; linkers in the order of their positions; H or OH if unused. Positions of bridges follow the written chain, without caps; N, C: chain ends. Non-standard residues stand in square brackets, D forms with d. Residues, ends and D or L forms follow the SMILES beside them. *: point of attachment. Leu(3R-O(AcLeu(3R-OH))) = CC(=O)N[C@H](C(=O)O[C@H](C(C)C)[C@H](N)C(=O)O)[C@H](O)C(C)C; Leu(3R-OH,Nα-propionyl) = CCC(=O)N[C@H](C(=O)*)[C@H](O)C(C)C; X1 = CC(C)[C@@H](O[*:3])[C@H](N[*:1])C(=O)[*:2]; NMeT = CN[C@H](C(=O)O)[C@@H](C)O; dPhLac = O=C(O)[C@H](O)Cc1ccccc1; NMeA = CN[C@@H](C)C(=O)O; NMeDha = C=C(NC)C(=O)O; Propionyl = CCC(=O)*

Key:
[1] = test system: 92.1 uveal melanoma cell line (heterozygous GNAQ Q209L); experiment: Cell proliferation assay (resazurin cell viability), 92.1 cell line; assay type: cell-based
Excerpt: (§1) Cell Proliferation Assays with Chromodepsins (compounds (A1) and 2-15): Cell line descriptions: 92.1—uveal melanoma cell line, derived from primary tumor, harboring heterozygous GNAQ Q209L mutation. Purchased from Sigma Aldrich. MP41 (CRL-3297) -uveal melanoma cell line, derived from primary tumor, harboring heterozygous GNA11 Q209L mutation. Purchased from ATCC. A375—skin melanoma cell line, harboring homozygous BRAF V600E mutation. Origin: Cancer Cell Line Encyclopedia (CCLE). SK-MEL-30—skin melanoma cell line, harboring heterozygous NRAS Q61K mutation. Origin: CCLE.
(§2) Cells were cultured in 96-well plates in a total volume of 100 μL at 37° C., 5% CO2 and 95% relative humidity. All cell lines were cultured in RPMI Medium (RPMI 1640 w/o L-glutamine, Bioconcept ref. 1-41F01-I) except A375, DMEM medium (DMEM high glucose (4.5 g/L), Bioconcept, ref. 1-26F01-I), and supplemented with 10% FCS (Bioconcept, ref. 2-01F30-I). Two to three thousand cells were seeded in 96-well plates per well the night before they were treated with compounds (concentration range: from 260 nM to 0.036 nM with ⅓ dilution steps; for 7 the concentration range was increased from 10000 nM to 1.52 nM with ⅓ dilution steps). Cell viability was measured by addition of 10 ul of resazurin per well after 96 hours of treatment. Results were analyzed and plotted using GraphPad Prism 9.0.1.

[2] = test system: MP41 uveal melanoma cell line (heterozygous GNA11 Q209L); experiment: Cell proliferation assay (resazurin cell viability), MP41 cell line; assay type: cell-based
Excerpt: as §1, §2

[3] = test system: A375 skin melanoma cell line (homozygous BRAF V600E); experiment: Cell proliferation assay (resazurin cell viability), A375 cell line; assay type: cell-based
Excerpt: as §1, §2

[4] = test system: SK-MEL-30 skin melanoma cell line (heterozygous NRAS Q61K); experiment: Cell proliferation assay (resazurin cell viability), SK-MEL-30 cell line; assay type: cell-based
Excerpt: as §1, §2

[5] = test system: 92.1 and MP41 cell lines (GNAQ/GNA11 mutant uveal melanoma); experiment: Cell proliferation assays, potency ranking over both uveal melanoma lines; assay type: cell-based; settings: 92.1 and MP41 cell lines
Excerpt: The selective antiproliferative profile of the chromodepsins against GNAQ/GNA11 mutant cell lines is confirmed by the lack of activity against the A375 and SK MEL 30 cell lines that are independent from GNAQ/GNA11 signaling. The potency ranking using the 92.1 and MP41 cell lines is in good agreement with the previously SAR studies. […] These findings are in line with a recent report from Voss et al., highlighting the importance of the “lipophilic anchors” of compound (A1) at the residues varied in compounds 2 and 3, in context of binding kinetics and prolonged residence time on the target proteins. The retained potency of compound 4 indicates a promising exit vector for potential synthetic or biosynthetic modifications of the scaffold. […] The linearized depsipeptides compounds 5-7 lack any antiproliferative activity. In this experimental setup, the cellular permeability of the compounds was a crucial factor contributing to the observed antiproliferative potency. Therefore, all compounds were characterized in a low efflux MCDK assay and determined their exposed polar surface areas (EPSA) in order to assess their passive cellular permeabilities. All macrocyclic chromodepsins that feature the N acyl Hle side chain show similar results concerning their % fraction absorbed (% FA; average ˜60% FA+20%) and EPSA values.
as §1, §2

MDCK-LE monolayers = experiment: Cell-based transwell assay with MDCK-low efflux monolayers (passive permeability); assay type: in vitro ADME; settings: MDCK-LE monolayers
Procedure: Cell-based transwell assays with MDCK-low efflux monolayers: Compounds (A1) and 2-15 were tested in MDCK cell sub-clones with low effluxt ransporter activity (MDCK-LE) in order to determine their passive permeability. The incubations were performed at a contract research organization as described previously.

[6] = EPSA determination by supercritical fluid chromatography; assay type: physicochemical; settings: modified EPSA method, SFC
Procedure: […] by supercritical fluid chromatography: Compounds (A1) and 2-15 were tested by supercritical fluid chromatography (SFC) to determine their ESAPSA values. Samples were analyzed using a Chirex 3014 column ([…], 3×100 mm column, 100 Å pore size; Phenomenex. The starting conditions were 5% methanol containing 20 mM ammonium formate and 95% scCO2. The gradient was increased linearly to 60% methanol containing 20 mM ammonium formate in 4.5 min.

[7] = 92.1 (GNAQ Q209L), 96 hours of treatment, read-out: GI50 by cell line, 92.1
[8] = 92.1 cell line, average of Rep. 1 and 2, read-out: GI50 92.1 Average
[9] = 92.1 cell line, replicate 1, read-out: GI50 92.1 Rep. 1
[10] = 92.1 cell line, replicate 2, read-out: GI50 92.1 Rep. 2
[11] = MP41 (GNA11 Q209L), 96 hours of treatment, read-out: GI50 by cell line, MP41
[12] = MP41 cell line, average of Rep. 1 and 2, read-out: GI50 MP41 Average
[13] = MP41 cell line, replicate 1, read-out: GI50 MP41 Rep. 1
[14] = MP41 cell line, replicate 2, read-out: GI50 MP41 Rep. 2
[15] = A375 (GNAQ/11 wild type), 96 hours of treatment, read-out: GI50 by cell line, A375
[16] = A375 cell line, average of Rep. 1 and 2, read-out: GI50 A375 Average
[17] = A375 cell line, replicate 1, read-out: GI50 A375 Rep. 1
[18] = A375 cell line, replicate 2, read-out: GI50 A375 Rep. 2
[19] = SK-MEL-30 (GNAQ/11 wild type), 96 hours of treatment, read-out: GI50 by cell line, SK-MEL-30
[20] = SK-MEL-30 cell line, average of Rep. 1 and 2, read-out: GI50 SK-MEL-30 Average
[21] = SK-MEL-30 cell line, replicate 1, read-out: GI50 SK-MEL-30 Rep. 1
[22] = SK-MEL-30 cell line, replicate 2, read-out: GI50 SK-MEL-30 Rep. 2

Row | SMILES | GI50 [1, 7] [nM] | GI50 [1, 8] [nM] | GI50 [1, 9] [nM] | GI50 [1, 10] [nM] | GI50 [2, 11] [nM] | GI50 [2, 12] [nM] | GI50 [2, 13] [nM] | GI50 [2, 14] [nM] | GI50 [3, 15] [nM] | GI50 [3, 16] [nM] | GI50 [3, 17] [nM] | GI50 [3, 18] [nM] | GI50 [4, 19] [nM] | GI50 [4, 20] [nM] | GI50 [4, 21] [nM] | GI50 [4, 22] [nM] | other results
1 | C=C1C(=O)N[C@@H](C)C(=O)N(C)[C@@H](C)C(=O)N[C@@H]([C@H](OC(=O)[C@@H](NC(=O)CC)[C@H](O)C(C)C)C(C)C)C(=O)N(C)[C@@H]([C@@H](C)OC)C(=O)O[C@H](C(C)C)[C@H](NC(=O)CC)C(=O)O[C@H](Cc2ccccc2)C(=O)N1C [Compound 9] (Propionyl-[X1][dPhLac][NMeDha]A[NMeA][X1](Leu(3R-OH,Nα-propionyl))[NMeT](Me); ester 1-C) | 1.4 | 1.4 | 1.2 | 1.69 | 0.7 | 0.7 | 0.6 | 0.78 | > 260 | > 260 | > 260 | > 260 | > 260 | > 260 | > 260 | > 260 | loss of potency compared to compound (A1) (growth inhibition) [5]: two to three
2 | C=C1C(=O)N[C@@H](C)C(=O)N(C)[C@@H](C)C(=O)N[C@@H]([C@H](OC(=O)[C@@H](NC(C)=O)[C@H](O)C(C)C)C(C)C)C(=O)N(C)[C@@H]([C@@H](C)OC)C(=O)O[C@H](C)[C@H](NC(C)=O)C(=O)O[C@H](Cc2ccccc2)C(=O)N1C [Compound 13] (Ac-T[dPhLac][NMeDha]A[NMeA][Leu(3R-O(AcLeu(3R-OH)))][NMeT](Me); ester 1-C) | 15.7 | 15.7 | 10.1 | 21.4 | 6 | 6 | 3.6 | 8.31 | > 260 | > 260 | > 260 | > 260 | > 260 | > 260 | > 260 | > 260 | % Fraction absorbed (MDCK-LE monolayers): 46.5%; % Recovery (MDCK-LE monolayers): 85%; Papp A − B (MDCK-LE monolayers): 2.69 ×10⁻⁶ cm/s; EPSA [6]: 95 A^2
